Experimental data as given in PMC5321741, “Arylmethylamino steroids as antiparasitic agents” (Nature Communications, 2017).
Where two headings read alike, the source gives them in different places.

Tests used:
in vitro = assay type: cell-based; conditions: Human
Experimental: Furthermore, cytotoxicity tests were carried out on immortalized human hepatocytes, Fa2N-4 cells (XenoTech, cat.no. IFH15), at the Sanford-Burnham Medical Research Institute. Cells were incubated with a range of concentrations (0.01–50 μM) of compound 1o for 24 h. Cell viability was determined with cellular ATP levels by using the Luminescence ATP Detection Assay System (ATPlite 1 step).

P. falciparum NF54 = assay: IC50 speed assay; assay type: cell-based, Plasmodium falciparum; conditions: for IC50: Plasmodium falciparum, mean±s.d., three biological replicates
Experimental: To assess the rapidity of growth inhibition induced by the steroid compounds, the so-called IC50 speed assay[16] was conducted for compound 1o on P. falciparum NF54 (Fig. 2a,b).

[1] = test system: P. falciparum gametocytes (pfs16-GFP-Luc, NF54 background); assay: gametocyte luciferase assay; assay type: cell-based, Plasmodium falciparum
Experimental: Sensitivity of P falciparum gametocytes to lead compound 1o was determined by measuring the activity of luciferase in luciferase-expressing gametocytes after an exposure of 72 h to different concentrations of compound 1o.
The pfs16-GFP-Luc (NF54 background) parasite strain[44] was maintained at 1 to 10% parasitaemia in an RPMI 1640 culture medium supplemented with A+ erythrocytes (2% haematocrit), 10% decomplemented human serum, 9 mM (0.16%) glucose, 0.2 mM hypoxanthine, 2.1 mM L-glutamine, and 20 μg ml^−1 gentamicin. Parasite cultures were incubated at 37 °C in 5% O2, 5% CO2, and 90% N2. […] Following drug exposure, parasites were cultivated for two additional days in normal medium before centrifugation and freezing at −80 °C, and luciferase activity was measured.
Plates frozen at −80 °C were thawed at 37 °C. […] Luciferase activity was measured on a luminescence plate reader (Mithras LB940 luminometer, Berthold Technologies). The mean of the luciferase activity was calculated for each technical triplicate and normalized as follows: (Lucx−LucRBC)/(Lucsolvent−LucRBC) with Lucx and Lucsolvent=mean luciferase activity for parasites incubated with compound x and with solvent (DMSO for 1o and PBS for MB), respectively, and LucRBC=mean luciferase activity of non-infected red blood cells (background). […]

[2] = hepatic microsome stability; assay type: in vitro ADME; conditions: for remaining at 1 h: liver microsomes, read-out: Hepatic Microsome Stability % remaining after 1 h
Experimental: Pharmacokinetic data were obtained for compound 1o at the Sanford-Burnham Medical Research Institute according to established procedures. Compound solubility in an aqueous solution was measured using an automated kinetic solubility method. The concentration of the compound in a saturated pH-buffered aqueous solution was determined via UV absorbance (250–498 nm) and compared with the spectra of a precipitation-free reference solution. The plasma stability of the compound was determined at a single concentration using species-specific plasma. The percentage of parent compound remaining after 3 h was determined via LC-MS/MS. The percentage of compound 1o bound to plasma proteins was determined through rapid equilibrium dialysis and quantified via LC-MS/MS. Metabolic stability of the compound was determined at a single concentration using species-specific liver microsomes that contained cytochrome P450s, flavin-monooxygenases, carboxyl-esterases, epoxide hydrolases, and other drug-metabolizing enzymes. The quantification was carried out via LC-MS/MS. Membrane permeability of compound 1o was measured using an in vitro model for the passive transport from the gastrointestinal tract into the blood system. A double-sink parallel artificial membrane permeability assay PAMPA, in a 96-well format was employed.

COc1ccc2c(c1)CCC1C2CC[C@@]2(C)C1CC[C@H]2NCc1cc2ccccc2cc1O (some centres unmarked) [1o]
CC50 at 24 h (in vitro): > 50000 nM
speed of action (IC50 shift across 24, 48, 72 h) (P. falciparum NF54): no significant IC50 shifts
IC50 (P. falciparum NF54; NF54, read-out: IC50 24 h, 24 h compound incubation): 2.9 ± 0.2 nM
IC50 (P. falciparum NF54; NF54, 48 h compound incubation, read-out: IC50 48 h): 3.4 ± 0.2 nM
IC50 (P. falciparum NF54; NF54, 72 h compound incubation, read-out: IC50 72 h): 2.7 ± 0.4 nM
relative survival of gametocytes ([1]; concentrations >5 nM, all stages, 72 h exposure): below 50%
complete killing of gametocytes ([1]; even at concentrations >1 μM): never detected complete killing of gametocytes
Hepatic Microsome Stability % remaining after 1 h ([2]; Human): ~38%
Hepatic Microsome Stability % remaining after 1 h ([2]; Mouse): ~38%
remaining at 1 h ([2]; human): 38.5%
remaining at 1 h ([2]; mouse): 38.5%
